Patent US20260234211A1, “POLYPEPTIDE HAVING MODIFIED STRUCTURE AND USE THEREOF” (Guangdong Raynovent Biotech Co., Ltd., priority 2023, published 2026)
Like-named read-outs stand apart in the source and are kept apart here. Numbered stars: 1 amine (or outer) side, 2 acyl side, 3 side chain; on linkers, the order of the positions; unused ones are H or OH. Bridge positions count the residues as written; N and C are the ends. Square brackets hold non-standard residues; d marks the D form. Peptide text beside a SMILES is read from it. X2 = O=C(O)CCCCCCCCCCCCCCCCCCC(=O)N[C@@H](CCC(=O)NCCOCCOCC(=O)N[C@@H](CCC(=O)[*:2])C(=O)[*:1])C(=O)O; αMeL = CC(C)C[C@](C)(N)C(=O)O; Aib = CC(C)(N)C(=O)O

Tests used:
[1] = Metabolic stability in human kidney S9; type: in vitro ADME
Description: The metabolic stability of the compounds in human kidney was evaluated to determine whether the drugs would be degraded by metabolic enzymes in the kidney to affect the efficacies and pharmacokinetics. 1. Relevant solutions were formulated. 2. a) With cofactors (NADPH & UDPGA): NADPH and UDPGA were added during the incubation. […] H2O was added into the culture solution. The final concentration of KS9 Fractions was 1 mg/mL. The mixture was pre-heated at 37° C. for 10 min. […] In this study, 7-hydroxy-coumarin and Raloxifene were used as the positive control. The final concentration of the positive control compounds was 0.2 μM, and the final concentration of the test compound was 1 μM. The culture solution was incubated in water bath at 37° C. 4. At 0.5, 5, 15, 30 and 60 min, volume aliquots were taken from the reaction solution and the reaction was stopped by adding acetonitrile. The samples were centrifuged for 30 min. The supernatant was taken and mixed with ultrapure water for subsequent LC-MS/MS analysis. 5. Data analysis: All calculation was conducted using Microsoft Excel. Peak areas were determined and slope values were calculated based on the extracted ion chromatograms.

[2] = Pharmacokinetic properties in Cynomolgus macaques; conditions: cynomolgus monkey, in vivo, male cynomolgus macaques, plasma; for AUC(0-t): read-out: AUC0-240 h; for AUC(0-inf): read-out: AUCINF; for Cmax: read-out: Cmax; for half-life: read-out: T1/2 (converted); for Tmax: read-out: Tmax
Description: To test the pharmacokinetic profiles of the compounds in Cynomolgus macaques.
Non-juvenile male cynomolgus macaques were used for experiment, 3 cynomolgus macaques for each compound. Whole blood was collected at time points of 1 h, 2 h, 4 h, 8 h, 16 h, 24 h, 48 h, 72 h, 120 h, 168 h and 240 h after administration, to prepare plasma. The drug concentration was analyzed by LC-MS/MS method, and the pharmacokinetic parameters were calculated using Phoenix WinNonlin software.

[3] = Human kidney S9 1 mg/mL, +Cofactors (NADPH & UDPGA), 37° C., read-out: in vitro CLint
[4] = Human kidney S9 1 mg/mL, +Cofactors (NADPH & UDPGA), 37° C., read-out: in vitro t1/2

Structure (SMILES)	AUC(0-t) [2] [µM·h]	AUC(0-inf) [2] [µM·h]	Cmax [2] [nM]	half-life [2] [h]	Tmax [2] [h]	also measured
O=c1ccc2ccc(O)cc2o1 [7-Hydroxy-courmarin, 7-hydroxy-coumarin, reference compound]						half-life at 0.2 μM ([1]; human, s9): 1.69 h; microsomal CLint at 0.2 μM ([1]; human, s9): 6.84 µL/min/mg
CC[C@H](C)[C@H](NC(=O)[C@H](Cc1ccccc1)NC(=O)[C@@H]1CCCCNC(=O)CN(C(=O)[C@@H](N)CCCCNC(=O)[C@@H](N)CCCCNC(=O)CC[C@H](NC(=O)CCCCCCCCCCCCCCCCCCC(=O)O)C(=O)O)CC(=O)NCCCC[C@H](NC(=O)[C@H](CCCCN)NC(=O)[C@H](CC(=O)O)NC(=O)[C@H](CC(C)C)NC(=O)[C@](C)(CC(C)C)NC(=O)[C@@H](NC(=O)[C@H](CO)NC(=O)[C@H](Cc2ccc(O)cc2)NC(=O)[C@H](CC(=O)O)NC(=O)[C@H](CO)NC(=O)[C@@H](NC(=O)[C@H](Cc2ccccc2)NC(=O)[C@@H](NC(=O)CNC(=O)[C@H](CCC(N)=O)NC(=O)C(C)(C)NC(=O)[C@@H](N)Cc2ccc(O)cc2)[C@@H](C)O)[C@@H](C)O)[C@@H](C)CC)C(=O)N[C@@H](C)C(=O)N[C@@H](CCC(N)=O)C(=O)NC(C)(C)C(=O)N1)C(=O)N[C@@H](CCC(=O)O)C(=O)N[C@@H](Cc1ccc(O)cc1)C(=O)N[C@@H](CC(C)C)C(=O)N[C@@H](CC(C)C)C(=O)N[C@@H](CCC(=O)O)C(=O)NCC(=O)NCC(=O)N1CCC[C@H]1C(=O)N[C@@H](CO)C(=O)N[C@@H](CO)C(=O)NCC(=O)N[C@@H](C)C(=O)N1CCC[C@H]1C(=O)N1CCC[C@H]1C(=O)N1CCC[C@H]1C(=O)N[C@@H](CO)C(N)=O [Example 7, YAibQGT FRSDY SIα- MeLLD K^1KAQAib ^1KFIEY LLEGG PSSGA PPPS-NH2 (SEQ ID NO: 1)]	3.32	3.96	24.3	84.1	29.3	microsomal CLint [1, 3]: < 3.75 µL/min/mg; half-life [1, 4]: > 3.08 h
CC[C@H](C)[C@H](NC(=O)[C@H](Cc1ccccc1)NC(=O)[C@@H]1CCCCNC(=O)CC[C@H](NC(=O)COCCOCCNC(=O)CC[C@H](NC(=O)CCCCCCCCCCCCCCCCCCC(=O)O)C(=O)O)C(=O)NCCCC[C@H](NC(=O)[C@H](CCCCN)NC(=O)[C@H](CC(=O)O)NC(=O)[C@H](CC(C)C)NC(=O)[C@](C)(CC(C)C)NC(=O)[C@@H](NC(=O)[C@H](CO)NC(=O)[C@H](Cc2ccc(O)cc2)NC(=O)[C@H](CC(=O)O)NC(=O)[C@H](CO)NC(=O)[C@@H](NC(=O)[C@H](Cc2ccccc2)NC(=O)[C@@H](NC(=O)CNC(=O)[C@H](CCC(N)=O)NC(=O)C(C)(C)NC(=O)[C@@H](N)Cc2ccc(O)cc2)[C@@H](C)O)[C@@H](C)O)[C@@H](C)CC)C(=O)N[C@@H](C)C(=O)N[C@@H](CCC(N)=O)C(=O)NC(C)(C)C(=O)N1)C(=O)N[C@@H](CCC(=O)O)C(=O)N[C@@H](Cc1ccc(O)cc1)C(=O)N[C@@H](CC(C)C)C(=O)N[C@@H](CC(C)C)C(=O)N[C@@H](CCC(=O)O)C(=O)NCC(=O)NCC(=O)N1CCC[C@H]1C(=O)N[C@@H](CO)C(=O)N[C@@H](CO)C(=O)NCC(=O)N[C@@H](C)C(=O)N1CCC[C@H]1C(=O)N1CCC[C@H]1C(=O)N1CCC[C@H]1C(=O)N[C@@H](CO)C(N)=O [Example 8, YAibQGT FTSDY SIα- MeLLD K^1KAQAib ^1KFIEY LLEGG PSSGA PPPS-NH2 (SEQ ID NO: 1)] (H-Y[Aib]QGTFTSDYSI[αMeL]LDKKAQ[Aib]KFIEYLLEGGPSSGAPPPS-NH2; linker 17-21 via X2 (inferred); N-terminus assumed)						half-life ([1]; human, s9): > 3.08 h; microsomal CLint ([1]; human, s9): < 3.75 µL/min/mg
CC[C@H](C)[C@H](NC(=O)[C@H](Cc1ccccc1)NC(=O)[C@@H]1CCCCNC(=O)CN(C(=O)COCCOCCNC(=O)CC[C@H](NC(=O)CCCCCCCCCCCCCCCCCCC(=O)O)C(=O)O)CC(=O)NCCCC[C@H](NC(=O)[C@H](CCCCN)NC(=O)[C@H](CC(=O)O)NC(=O)[C@H](CC(C)C)NC(=O)[C@](C)(CC(C)C)NC(=O)[C@@H](NC(=O)[C@H](CO)NC(=O)[C@H](Cc2ccc(O)cc2)NC(=O)[C@H](CC(=O)O)NC(=O)[C@H](CO)NC(=O)[C@@H](NC(=O)[C@H](Cc2ccccc2)NC(=O)[C@@H](NC(=O)CNC(=O)[C@H](CCC(N)=O)NC(=O)C(C)(C)NC(=O)[C@@H](N)Cc2ccc(O)cc2)[C@@H](C)O)[C@@H](C)O)[C@@H](C)CC)C(=O)N[C@@H](C)C(=O)N[C@@H](CCC(N)=O)C(=O)NC(C)(C)C(=O)N1)C(=O)N[C@@H](CCC(=O)O)C(=O)N[C@@H](Cc1ccccc1)C(=O)N[C@@H](CC(C)C)C(=O)N[C@@H](CC(C)C)C(=O)N[C@@H](CCC(=O)O)C(=O)NCC(=O)NCC(=O)N1CCC[C@H]1C(=O)N[C@@H](CO)C(=O)N[C@@H](CO)C(=O)NCC(=O)N[C@@H](C)C(=O)N1CCC[C@H]1C(=O)N1CCC[C@H]1C(=O)N1CCC[C@H]1C(=O)N[C@@H](CO)C(N)=O [Example 9, YAibQGT FTSDY SIα- MeLLD K^1KAQAib ^1KFIEF LLEGG PSSGA PPPS-NH2 (SEQ ID NO: 15)]	3.23	3.64	30.1	77.4	29.3	
CC[C@H](C)[C@@H]1NC(=O)[C@H](Cc2ccccc2)NC(=O)[C@H](C)NC(=O)C(C)(C)NC(=O)[C@H](CCC(N)=O)NC(=O)[C@H](C)NC(=O)[C@@H](NC(=O)[C@H](CCCCN)NC(=O)[C@H](CC(=O)O)NC(=O)[C@H](CC(C)C)NC(=O)[C@](C)(CC(C)C)NC(=O)[C@@H](NC(=O)[C@H](CO)NC(=O)[C@H](Cc2ccc(O)cc2)NC(=O)[C@H](CC(=O)O)NC(=O)[C@H](CO)NC(=O)[C@@H](NC(=O)[C@H](Cc2ccccc2)NC(=O)[C@@H](NC(=O)CNC(=O)[C@H](CCC(N)=O)NC(=O)C(C)(C)NC(=O)[C@@H](N)Cc2ccc(O)cc2)[C@@H](C)O)[C@@H](C)O)[C@@H](C)CC)CCCCNC(=O)CN(C(=O)COCCOCCNC(=O)COCCOCCNC(=O)CC[C@H](NC(=O)CCCCCCCCCCCCCCCCCCC(=O)O)C(=O)O)CC(=O)NCCCC[C@@H](C(=O)N[C@@H](Cc2ccc(O)cc2)C(=O)N[C@@H](CC(C)C)C(=O)N[C@@H](CC(C)C)C(=O)N[C@@H](CCC(=O)O)C(=O)NCC(=O)NCC(=O)N2CCC[C@H]2C(=O)N[C@@H](CO)C(=O)N[C@@H](CO)C(=O)NCC(=O)N[C@@H](C)C(=O)N2CCC[C@H]2C(=O)N2CCC[C@H]2C(=O)N2CCC[C@H]2C(=O)N[C@@H](CO)C(N)=O)NC1=O [Example 11, YAibQGT FTSDY SIα- MeLLD K^1KAQAib AFI^1KY LLEGG PSSGA PPPS-NH2 (SEQ ID NO: 17)]						half-life at 1 μM ([1]; human, s9): > 3.08 h; microsomal CLint at 1 μM ([1]; human, s9): < 3.75 µL/min/mg
CC[C@H](C)[C@H](NC(=O)[C@H](Cc1ccccc1)NC(=O)[C@H](C)NC(=O)C(C)(C)NC(=O)[C@H](CCC(N)=O)NC(=O)[C@H](C)NC(=O)[C@@H]1CCCCNC(=O)CN(C(=O)COCCOCCNC(=O)CC[C@H](NC(=O)CCCCCCCCCCCCCCCCCCC(=O)O)C(=O)O)CC(=O)NCCCC[C@H](NC(=O)[C@](C)(CC(C)C)NC(=O)[C@@H](NC(=O)[C@H](CO)NC(=O)[C@H](Cc2ccc(O)cc2)NC(=O)[C@H](CC(=O)O)NC(=O)[C@H](CO)NC(=O)[C@@H](NC(=O)[C@H](Cc2ccccc2)NC(=O)[C@@H](NC(=O)CNC(=O)[C@H](CCC(N)=O)NC(=O)C(C)(C)NC(=O)[C@@H](N)Cc2ccc(O)cc2)[C@@H](C)O)[C@@H](C)O)[C@@H](C)CC)C(=O)N[C@@H](CC(=O)O)C(=O)N[C@@H](CCCCN)C(=O)N1)C(=O)N[C@@H](CCC(=O)O)C(=O)N[C@@H](Cc1ccc(O)cc1)C(=O)N[C@@H](CC(C)C)C(=O)N[C@@H](CC(C)C)C(=O)N[C@@H](CCC(=O)O)C(=O)NCC(=O)NCC(=O)N1CCC[C@H]1C(=O)N[C@@H](CO)C(=O)N[C@@H](CO)C(=O)NCC(=O)N[C@@H](C)C(=O)N1CCC[C@H]1C(=O)N1CCC[C@H]1C(=O)N1CCC[C@H]1C(=O)N[C@@H](CO)C(N)=O [Example 21, YAibQGT FTSDY SIα- MeL^1KD K^1KAQAib AFIEY LLEGG PSSGA PPPS-NH2 (SEQ ID NO: 24)]	4.6	5.94	31.2	105	40	microsomal CLint at 1 μM [1, 3]: < 3.75 µL/min/mg; half-life at 1 μM [1, 4]: > 3.08 h
O=C(c1ccc(OCCN2CCCCC2)cc1)c1c(-c2ccc(O)cc2)sc2cc(O)ccc12 [Raloxifene, reference compound]						half-life at 0.2 μM ([1]; human, s9): 1.56 h; microsomal CLint at 0.2 μM ([1]; human, s9): 7.77 µL/min/mg
